Reference: the supplement of paper PMC10307832

Tests used:
Assay in all cases: relative viability (nuclei count vs DMSO), 5 days (fraction); higher = more cells survive
Tipifarnib + Phenformin = compound: Cn1cncc1[C@@](N)(c1ccc(Cl)cc1)c1ccc2c(c1)c(-c1cccc(Cl)c1)cc(=O)n2C [Tipifarnib] + N=C(N)NC(=N)NCCc1ccccc1 [Phenformin] (partner 250 µM)
Outline: (§1)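 Lung cancer cell lines in 1536-well plates were dosed by pin tool the day after seeding, either with one drug alone or with a fixed anchor-drug dose plus five library-drug doses (not always all listed) in √10 steps. After 5 days, cells were fixed and their nuclei stained in one step (final 0.05% Triton X-100, 1% formaldehyde, 1 ug/ml Hoechst), then counted on 4× images. Relative viability is the nuclei count in treated wells divided by that in vehicle wells. Values are medians of duplicate plates.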

Tipifarnib + Trametinib = compound: Cn1cncc1[C@@](N)(c1ccc(Cl)cc1)c1ccc2c(c1)c(-c1cccc(Cl)c1)cc(=O)n2C [Tipifarnib] + CC(=O)Nc1cccc(-n2c(=O)n(C3CC3)c(=O)c3c(Nc4ccc(I)cc4F)n(C)c(=O)c(C)c32)c1 [Trametinib] (partner 0.02 µM)
Outline: as §1

Tipifarnib + OSI-027 = compound: Cn1cncc1[C@@](N)(c1ccc(Cl)cc1)c1ccc2c(c1)c(-c1cccc(Cl)c1)cc(=O)n2C [Tipifarnib] + COc1cccc2cc(-c3nc([C@H]4CC[C@H](C(=O)O)CC4)n4ncnc(N)c34)[nH]c12 [OSI-027] (partner 0.5 µM)
Outline: as §1

Tipifarnib = compound: Cn1cncc1[C@@](N)(c1ccc(Cl)cc1)c1ccc2c(c1)c(-c1cccc(Cl)c1)cc(=O)n2C [Tipifarnib]
Outline: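 Viability is treated-well nuclei as a fraction of vehicle-well nuclei, reported as the median across plates. Before counting, lung cancer cell lines were kept overnight at 37 °C in 1536-well plates, pinned with five √10-spaced library-drug doses on vehicle-anchored plates, and left 5 days without medium change, then fixed, permeabilised and Hoechst-stained in one step, imaged at 4× and counted by MetaXpress. A plate passed only if control CV was below 25% and at least one doubling occurred.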

Cell Line	relative viability (Tipifarnib + Phenformin; first compound 0.01 µM)	relative viability (Tipifarnib + Phenformin; first compound 0.03162 µM)	relative viability (Tipifarnib + Phenformin; first compound 0.1 µM)	relative viability (Tipifarnib + Phenformin; first compound 0.3162 µM)	relative viability (Tipifarnib + Phenformin; first compound 1 µM)	relative viability (Tipifarnib + Trametinib; first compound 0.01 µM)	relative viability (Tipifarnib + Trametinib; first compound 0.03162 µM)	relative viability (Tipifarnib + Trametinib; first compound 0.1 µM)	relative viability (Tipifarnib + Trametinib; first compound 0.3162 µM)	relative viability (Tipifarnib + Trametinib; first compound 1 µM)	relative viability (Tipifarnib + OSI-027; first compound 0.01 µM)	relative viability (Tipifarnib + OSI-027; first compound 0.03162 µM)	relative viability (Tipifarnib + OSI-027; first compound 0.1 µM)	relative viability (Tipifarnib + OSI-027; first compound 0.3162 µM)	relative viability (Tipifarnib + OSI-027; first compound 1 µM)	relative viability (Tipifarnib; 0.01 µM)	relative viability (Tipifarnib; 0.03162 µM)	relative viability (Tipifarnib; 0.1 µM)	relative viability (Tipifarnib; 0.3162 µM)	relative viability (Tipifarnib; 1 µM)
NCI-H441	0.984	0.619	0.465	0.525	0.329	0.429	0.319	0.372	0.228	0.225	0.791	0.255	0.393	0.326	0.272	1.33	0.751	0.718	0.568	0.393
NCI-H460	0.516	0.376	0.295	0.224	0.0277	0.142	0.0861	0.0817	0.0529	0.0386	0.669	0.626	0.257	0.209	0.0157	0.989	0.963	0.727	0.538	0.149
NCI-H520	0.591	0.319	0.447	0.425	0.267	0.87	0.642	0.7	0.521	0.315	0.214	0.262	0.187	0.19	0.199	1.02	0.9	0.947	0.658	0.504
NCI-H522	0.617	0.698	0.65	0.599	0.563	0.802	0.834	0.739	0.68	0.696	0.66	0.709	0.725	0.584	0.615	0.917	1.06	1.1	0.898	0.748
NCI-H596	0.801	0.745	0.663	0.574	0.658	0.759	1	0.593	0.53	0.527	0.725	0.627	0.606	0.398	0.506	0.982	0.964	0.918	0.724	0.587
NCI-H647	0.499	0.353	0.469	0.262	0.114	0.475	0.419	0.418	0.254	0.225	0.409	0.585	0.438	0.299	0.101	0.883	0.807	0.727	0.404	0.196
NCI-H650	0.411	0.419	0.419	0.408	0.277	1.09	0.911	0.841	0.696	0.549	0.486	0.375	0.297	0.305	0.266	0.855	0.922	0.733	0.695	0.368
NCI-H661	0.29	0.283	0.275	0.261	0.309	0.627	0.487	0.482	0.396	0.456	0.696	0.601	0.439	0.33	0.339	1.03	1.02	0.934	0.905	0.849
NCI-H727	0.529	0.501	0.544	0.617	0.539	0.425	0.395	0.379	0.384	0.404	0.599	0.535	0.459	0.477	0.427	1.16	1.11	0.876	0.685	0.645
NCI-H838	0.547	0.504	0.421	0.44	0.389	0.47	0.483	0.434	0.431	0.374	0.357	0.339	0.23	0.231	0.184	0.9	0.892	0.741	0.722	0.621
NCI-H1355	0.427	0.44	0.429	0.403	0.344	0.486	0.387	0.357	0.352	0.339	0.37	0.344	0.295	0.262	0.26	1.04	0.852	0.68	0.675	0.607
NCI-H1395	0.444	0.398	0.428	0.436	0.348	1.25	0.966	0.946	0.862	0.967	0.622	0.545	0.494	0.517	0.413	0.808	0.823	0.659	0.606	0.492
NCI-H1437	0.266	0.315	0.296	0.218	0.228	0.591	0.596	0.619	0.406	0.446	0.823	0.728	0.488	0.446	0.33	1.01	1.01	1.02	0.917	0.634
NCI-H1650	0.291	0.209	0.196	0.262	0.187	0.442	0.285	0.474	0.294	0.236	0.407	0.17	0.305	0.26	0.196	0.68	0.486	0.553	0.453	0.374
NCI-H1651	0.322	0.327	0.319	0.266	0.235	0.827	0.754	0.781	0.832	0.802	0.65	0.729	0.673	0.558	0.456	1.02	0.992	1.05	0.992	0.877
NCI-H1666	0.526	0.502	0.552	0.471	0.575	0.832	0.798	0.846	0.811	0.679	0.73	0.737	0.585	0.566	0.602	0.99	0.858	0.858	0.8	0.795

Cell Line	relative viability (Tipifarnib + Phenformin; first compound 0.01 µM)	relative viability (Tipifarnib + Phenformin; first compound 0.03162 µM)	relative viability (Tipifarnib + Phenformin; first compound 0.1 µM)	relative viability (Tipifarnib + Phenformin; first compound 0.3162 µM)	relative viability (Tipifarnib + Phenformin; first compound 1 µM)	relative viability (Tipifarnib + Trametinib; first compound 0.01 µM)	relative viability (Tipifarnib + Trametinib; first compound 0.03162 µM)	relative viability (Tipifarnib + Trametinib; first compound 0.1 µM)	relative viability (Tipifarnib + Trametinib; first compound 0.3162 µM)	relative viability (Tipifarnib + Trametinib; first compound 1 µM)	relative viability (Tipifarnib + OSI-027; first compound 0.01 µM)	relative viability (Tipifarnib + OSI-027; first compound 0.03162 µM)	relative viability (Tipifarnib + OSI-027; first compound 0.1 µM)	relative viability (Tipifarnib + OSI-027; first compound 0.3162 µM)	relative viability (Tipifarnib + OSI-027; first compound 1 µM)	relative viability (Tipifarnib; 0.01 µM)	relative viability (Tipifarnib; 0.03162 µM)	relative viability (Tipifarnib; 0.1 µM)	relative viability (Tipifarnib; 0.3162 µM)	relative viability (Tipifarnib; 1 µM)
NCI-H1734	0.391	0.352	0.373	0.251	0.275	0.66	0.555	0.556	0.478	0.407	0.581	0.444	0.463	0.316	0.365	0.92	0.865	0.789	0.559	0.448
NCI-H1755	0.703	0.594	0.564	0.577	0.418	0.793	0.732	0.718	0.723	0.714	0.75	0.603	0.677	0.622	0.452	1.02	1	0.976	0.955	0.826
NCI-H1792	–	–	0.125	0.0695	0.114	0.409	0.241	0.246	0.242	0.239	0.9	0.76	0.548	0.32	0.357	0.952	0.715	0.706	0.25	0.238
NCI-H1793	0.357	0.371	0.354	0.194	0.267	0.426	0.37	0.342	0.381	0.339	0.254	0.326	0.204	0.215	0.216	0.981	0.802	0.869	0.448	0.462
NCI-H1915	0.383	0.359	0.341	0.267	0.236	0.298	0.269	0.214	0.201	0.195	0.445	0.357	0.399	0.325	0.288	0.772	0.763	0.606	0.494	0.42
NCI-H1944	0.207	0.194	0.163	0.155	0.168	0.438	0.371	0.348	0.297	0.302	0.419	0.324	0.307	0.247	0.263	0.886	0.65	0.514	0.437	0.429
NCI-H1975	0.435	0.403	0.413	0.347	0.274	0.316	0.272	0.337	0.252	0.288	0.788	0.701	0.567	0.318	0.31	0.914	1.11	0.979	0.705	0.59
NCI-H1993	0.414	0.508	0.529	0.518	0.559	0.575	0.476	0.485	0.594	0.61	0.469	0.613	0.531	0.644	0.604	0.966	0.754	0.736	0.593	0.69
NCI-H2009	0.525	0.492	0.388	0.386	0.352	0.265	0.21	0.192	0.183	0.185	0.659	0.362	0.335	0.299	0.245	1.03	0.876	0.766	0.697	0.575
NCI-H2023	0.415	0.381	0.273	0.272	0.236	0.46	0.373	0.403	0.228	0.234	0.412	0.273	0.225	0.143	0.132	0.868	0.665	0.502	0.458	0.288
NCI-H2085	0.777	0.442	0.433	0.385	0.532	0.58	0.603	0.44	0.408	0.366	0.738	0.377	0.397	0.367	0.538	1.04	0.82	0.708	0.661	0.723
NCI-H2087	0.463	0.38	0.298	0.294	0.222	0.157	0.221	0.235	0.145	0.14	0.464	0.205	0.232	0.161	0.164	0.849	0.405	0.332	0.329	0.401
NCI-H2126	0.56	0.532	0.517	0.49	0.435	0.585	0.496	0.528	0.515	0.482	0.719	0.719	0.711	0.614	0.435	1.03	0.992	0.954	0.933	0.566
NCI-H2170	0.439	0.418	0.389	0.379	0.343	1.04	0.876	0.793	0.716	0.655	0.668	0.678	0.583	0.55	0.353	1.04	1.03	0.992	0.789	0.8
NCI-H2228	0.25	0.286	0.379	0.222	0.138	0.542	0.378	0.385	0.303	0.177	0.502	0.427	0.363	0.214	0.168	1.06	0.844	0.687	0.606	0.553
